Test results reported in publication PMC11001709, “Anti-toxoplasma activity and DNA-binding of copper(II) and zinc(II) coordination compounds with 5-nitroimidazole-based ligands” (Journal of Biological Inorganic Chemistry, 2023).
≈ marks a conversion by molar mass, not a printed value.

Assays:
[1] = tested on: RH tachyzoites of Toxoplasma gondii; assay: Viability of extracellular tachyzoites, Sytox Green exclusion test; assay type: cell-based; settings: 1 h
Description: RH tachyzoites of Toxoplasma gondii were extracted in PBS solution at pH 7.4 from intraperitoneal fluid of infected CD1 mice on the third day of infection and centrifuged for ten minutes at 260g. Purified parasites were used within 4 h after their isolation.
The viability of the parasites was determined from staining with Sytox Green® fluorescent dye exclusion test. Purified tachyzoites (1 × 10^6) were incubated for one hour at room temperature with PBS solutions of the coordination compounds or the free ligands at concentrations of 40, 20, 10, 5, and 2.5 µM (0.1% DMSO), in a volume final of 1 mL. After the incubation time, the samples were centrifuged for 10 min at 250g, the medium was removed and 20 µL of Sytox Green® was added after 15 min of incubation for differentiate dead parasites in a Neubauer chamber. The assays were performed in triplicate. The half maximal inhibitory concentration (IC50) was calculated by Boltzmann regression analysis and expressed as mean ± standard error of three replicates. Based on the results the tachyzoites were incubated under the same conditions with the coordination compounds [Cu(onz)2Cl2] and [Cu(onz)2Br2] at their respective IC50 values, Sytox Green® was then added, and they were observed by fluorescence microscopy. Sulfadiazine was used as positive control.
Viability assays were performed against tachyzoites of Toxoplasma gondii. The RH strain was used to evaluate the effect of different concentrations (namely, 2.5, 5, 10, 20 and 40 µM) of the coordination compounds and the free 5-nitroimidazole against the tachyzoites. The evaluation were performed in PBS buffer (pH 7.4) with Sytox Green® exclusion test, which allows differentiating dead from live tachyzoites, since the intact cell membrane of alive ones is not stained.

[2] = Distribution coefficient LogD7.4, shake-flask 1-octanol/MOPS buffer; assay type: physicochemical; settings: 1-octanol/MOPS buffer, pH 7.4, octanol/water (MOPS buffer 10^–2 M), 25 °C
Description: Solutions between 100 and 10 µM of the free ligands (cenz and onz) and the coordination compounds 3–10 were prepared in a MOPS buffer pH 7.4 as the aqueous phase and in 1-octanol as the organic phase. The absorption at 320 nm and 310 nm was determined for the aqueous and organic phase respectively by electronic spectroscopy (UV–Vis). Through a linear regression (concentration vs. absorption) the molar extinction coefficient of each compound in both phases was determined (Table 3). The lipophilicity was calculated in the 1-octanol/water system from the shake flask method using Eq. 1 [39]:1 […] where, Co is the final concentration in the organic phase and Cw is the final concentration in the aqueous phase (MOPS buffer at 10^–2 M pH 7.4). Both phases were presaturated with 50 µM solutions of the free ligands or 500 µM of each coordination compound and their UV spectrum was recorded. Both phases were combined and kept stirring for 3 h at 25 °C and in the absence of light. Subsequently, the mixture was centrifuged at 400g and the concentration in both phases was determined by UV–Vis spectroscopy using the Beer-Lambert law. The assays were performed in triplicate.
The T gondii parasite is an apicomplex organism; it requires a host cell to live, so it is important that the drugs used against the parasite have easy access to the cell. The lipophilicity of a compound is an important physicochemical property to determine its ability to permeate the biological membrane through passive diffusion; which usually is measured from the distribution coefficient logD7.4 = log(Co/Cw), in n-octanol/water. The shake-flask method was used to determine the LogD7.4 values from the molar extinction coefficients of the coordination compounds and the ligands in the two solvents (Table 3).

ct-DNA = assay: Circular dichroism of ct-DNA; assay type: binding, calf; settings: [DNA]b = 50 µM, [complex]/[DNA] 0-2, 1 h 37 °C
Description: For the UV–Vis, fluorescence and circular dichroism assays the concentration of ct-DNA was determined on a Varian Cary 100 Scan spectrophotometer from the absorption at 260 nm and the corresponding molar absorptivity of 6600 M^−1 cm^−1 (nucleobase concentration). The stock solutions of the coordination compounds and the free ligands were prepared in cacodylate/NaCl buffer (1 mM cacodylic acid and 20 mM sodium chloride) at pH 7.25. The final samples contained a DMSO concentration of 0.2%.
Circular dichroism (CD) spectra were recorded using a JASCO-815 spectropolarimeter, equipped with xenon-arc lamp of 450 W. The sample compartment was air-purged with N2 before use. For the measurements, a quartz cuvette with an optical path of 5 mm was used. A solution of 25 µM (in base pairs) of ct-DNA in cacodylate/NaCl buffer was incubated for 1 h at 37 °C with increasing amounts of coordination compounds (0–50 µM). The CD spectra were recorded at room temperature.
The interaction of small molecules with DNA can modify these CD signals depending on the type of binding. Intercalative interactions increase the intensity of the signals, as the result of an increase of the stability of the B conformation, whereas groove binding or covalent interactions tend to decrease the intensity of these signals, which are moreover displaced. The CD spectra for both ligands and their copper(II) and zinc(II) complexes were obtained at constant concentration of ct-DNA, increasing the complex concentration up to two equivalents ([complex]/[DNA] ratios of 0, 0.2, 0.4, 1, 2) with respect to the nucleobases concentration ([DNA]b = 50 µM).

pBR322 plasmid DNA = assay: Agarose gel electrophoresis, DNA cleavage; assay type: biochemical; settings: for %Damage / %Nicked / %Supercoiled: compound 50 (mM in the source)
Description: Electrophoresis assays were performed in 1.5% agarose gel and 1× TBE buffer using the DNA plasmid pBR322. The plasmid (15 µM base pairs) was incubated with 10 and 50 μM concentrations of the coordination compounds for 1 h at 37 °C in presence and absence of ascorbic acid (50 μM) as reducing agent and hydrogen peroxide (500 µM) as ROS generator in a final volume of 20 μL. The DNA-cleaving compound [Cu(phen)2(H2O)](NO3)2 was used as reference. The samples were loaded into the gel with 4 μL of a loading buffer (30% glycerol, 5 mM xylene cyanol), and electrophoresis was performed in 1× TBE at 100 V for 1 h in a Bio-Rad horizontal tank. Subsequently, the gel was stained with SYBR™ Safe overnight and images were acquired with a Gel Doc EZ Imager instrument (Bio-Rad).
Distinct forms of pBR322 plasmid DNA are commonly observed by gel electrophoresis due to the conformational changes that present distinct electrophoretic mobility: (1) supercoiled DNA (Form I) that migrates faster on the gel, (2) circular nicked (Form II), obtained from a one-strand scission, has a slower migration through the gel and (3) linear form (Form III) is generated when both strands are cleaved and migrates between forms I and II [54]. The interaction of the free ligands and their copper(II) and zinc(II) coordination compounds with pBR322 was investigated in presence of H2Asc (50 μM) as reducing agent and H2O2 (500 μM) as ROS generator. Solutions of 10 and 50 µM of the coordination compounds were incubated with the DNA at 37 °C for 1 h.

Entamoeba histolytica = settings: cited from earlier work
[3] = intraperitoneal injection; cited from earlier work
[4] = tested on: Euryhaliotrema perezponcei; parameters: method as in doi:10.1016/j.poly.2013.09.030, PMID 28917638; settings: in vitro and in vivo assays; cited from earlier work

Cc1ncc([N+](=O)[O-])n1CC(O)CCl (centres unmarked) [onz, 1-(3-chloro-2-hydroxypropyl)-2-methyl-5-nitroimidazole, reference compound]
activity against T. gondii ([1]; 2.5-40 µM, PBS): did not show activity
logD at 3 h [2]: 0.64
effect on CD spectrum of ct-DNA (bands at 275 and 245 nm) (ct-DNA): did not affect the DNA structure
%Damage (pBR322 plasmid DNA; + H2Asc): 11.80%
%Nicked (pBR322 plasmid DNA; + H2Asc): 5.60%
%Supercoiled (pBR322 plasmid DNA; + H2Asc): 88.20%
%Damage (pBR322 plasmid DNA; + H2Asc + H2O2): 8.80%
%Nicked (pBR322 plasmid DNA; + H2Asc + H2O2): 4.30%
%Supercoiled (pBR322 plasmid DNA; + H2Asc + H2O2): 91.20%
%Damage (pBR322 plasmid DNA; + H2O2): 10.70%
%Nicked (pBR322 plasmid DNA; + H2O2): 8.90%
%Supercoiled (pBR322 plasmid DNA; + H2O2): 89.30%
%Damage (pBR322 plasmid DNA; no additive): 9.80%
%Nicked (pBR322 plasmid DNA; no additive): 7.60%
%Supercoiled (pBR322 plasmid DNA; no additive): 90.20%
DNA cleavage (in words) (pBR322 plasmid DNA; with and without H2Asc / H2O2): did not provoke any significant DNA cleavage
MIC (Entamoeba histolytica): 12.5 µM (≈ 2.75 µg/mL)

Nc1ccc(S(=O)(=O)Nc2ncccn2)cc1 [sulfadiazine, reference compound]
IC50 ([1]; Toxoplasma gondii, PBS pH 7.4, mean ± standard error of three replicates, read-out: IC50): > 1600 µM
LD50 [3]: 180 mg/kg

CCS(=O)(=O)CCn1c([N+](=O)[O-])cnc1C.CCS(=O)(=O)CCn1c([N+](=O)[O-])cnc1C.[Br][Cu][Br] [[Cu(tnz)2Br2]]
parasite mortality percentage [4]: 100%
